Measured values taken from patent US12421193B2, “GPR52 modulators and methods of use” (Neurocrine Biosciences, Inc., priority 2020, dated 2025).

Target: T1, recombinant human GPR52 (Homo sapiens, UniProt Q9Y2T5)
T1 construct: expressed in transfected cells
Assay: TR-FRET cAMP assay (LANCE Ultra cAMP Kit), GPR52 activity
Format: cell-based
Conditions: Flp-In-CHO cells stably expressing recombinant human GPR52; cAMP production, normalized to the positive control
Method: TR-FRET cAMP assays were performed using commercially available assay kits (LANCE™ Ultra cAMP Kit). Controls and compounds were solubilized in DMSO using ½ log dilution to generate duplicate 10-point dose response curves in 384-well polypropylene compound plates. Sixty nanoliters of the diluted compounds were transferred into 384-well NBS assay plates and further diluted to 1× with the addition of 2000 cells per well. Flp-In™—CHO cells that stably express recombinant human GPR52.
Cells were harvested with cell stripper and resuspended in Stimulation Buffer (5 mM HEPES, 0.1% bovine serum albumin (BSA), 0.5 mM IBMX, pH 7.4). After thirty minutes incubation at room temperature, detection reagents were added to each well. Plates were then incubated for 30 minutes at room temperature. The LANCE™ Ultra cAMP assay uses time-resolved fluorescence resonance energy transfer (TR-FRET) to detect cAMVP production; this signal was quantified using a Pherastar multi-mode plate reader.
Dose-response curves were generated from the fluorescence counts normalized to the positive control. E EC50 values were obtained using a nonlinear regression curve-fitting program.

T1 sequence (Q9Y2T5 whole entry): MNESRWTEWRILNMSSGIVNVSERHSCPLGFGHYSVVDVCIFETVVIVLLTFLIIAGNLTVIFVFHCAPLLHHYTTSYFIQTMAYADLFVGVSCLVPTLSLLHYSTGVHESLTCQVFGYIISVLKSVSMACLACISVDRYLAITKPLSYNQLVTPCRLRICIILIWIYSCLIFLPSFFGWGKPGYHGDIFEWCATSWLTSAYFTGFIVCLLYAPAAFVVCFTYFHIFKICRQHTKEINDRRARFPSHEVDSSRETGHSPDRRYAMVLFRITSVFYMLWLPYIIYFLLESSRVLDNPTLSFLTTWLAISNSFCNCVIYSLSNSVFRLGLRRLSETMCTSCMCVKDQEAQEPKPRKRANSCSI

| Compound | EC50 [nM] |
| --- | --- |
| COc1ccc(OCc2ccnc(-c3ccc(C(N)=O)c(C)c3)c2)cc1 [Example 30, 4-[4-(4-methoxyphenoxymethyl)pyridin-2-yl]-2-methylbenzamide] | 101 to 1000 |
| COc1ccc(OCc2ccnc(-c3ccc(C(N)=O)c(C)c3)c2)c2ccccc12 [Example 19, 4-(4-{[(4-methoxynaphthalen-1-yl)oxy]methyl}pyridin-2-yl)-2-methylbenzamide] | 101 to 1000 |
| Cc1cc(-c2cc(COc3ccc(Cl)cc3)ccn2)ccc1C(N)=O [Example 40, 4-[4-(4-chlorophenoxymethyl)pyridin-2-yl]-2-methylbenzamide] | > 1000 |
| COc1cc(OCc2cncc(-c3ccc(C(N)=O)c(C)c3)c2)ccc1C#N [Example 94, 4-[5-(4-cyano-3-methoxyphenoxymethyl)pyridin-3-yl]-2-methylbenzamide] | 101 to 1000 |
| Cc1ccc(OCc2ccnc(-c3ccc(C(N)=O)c(C)c3)c2)c(Cl)c1 [Example 44, 4-[4-(2-chloro-4-methylphenoxymethyl)pyridin-2-yl]-2-methylbenzamide] | < 25 |
| Cc1cc(-c2cc(COc3ccc(F)c(F)c3)ccn2)ccc1C(N)=O [Example 48, 4-[4-(3,4-difluorophenoxymethyl)pyridin-2-yl]-2-methylbenzamide] | < 25 |
| Cc1cc(-c2cc(COc3cccc(C(F)(F)F)c3)ccn2)ccc1C(N)=O [Example 2, 4-{4-[3-(trifluoromethyl)phenoxymethyl]pyridin-2-yl}-2-methyl benzamide] | < 25 |
| Cc1cc(-c2cc(COc3cc(F)c(C#N)c(F)c3)ccn2)ccc1C(N)=O [Example 10, 4-[4-(4-cyano-3,5-difluorophenoxymethyl)pyridin-2-yl]-2-methylbenzamide] | 25 to 100 |
| Cc1cc(-c2cc(COc3ccc(Cl)c(C#N)c3)ccn2)ccc1C(N)=O [Example 49, 4-[4-(4-chloro-3-cyanophenoxymethyl)pyridin-2-yl]-2-methylbenzamide] | 25 to 100 |
| Cc1cc(-c2cc(COc3ccc(C(F)(F)F)c(F)c3)ccn2)ccc1C(N)=O [Example 65, 4-{4-[3-fluoro-4-(trifluoromethyl)phenoxymethyl]pyridin-2-yl}-2-methylbenzamide] | < 25 |
| Cc1cc(-c2cc(COc3cccc4c3CCC4=O)ccn2)ccc1C(N)=O [Example 31, 4-(4-{[(1-oxo-2,3-dihydro-1H-inden-4-yl)oxy]methyl}pyridin-2-yl)-2-methylbenzamide] | 101 to 1000 |
| Cc1cc(-c2cccc(COc3cccc(C(F)(F)F)c3)n2)ccc1C(N)=O [Example 102, 4-{6-[3-(trifluoromethyl)phenoxymethyl]pyridin-2-yl}-2-methylbenzamide] | > 1000 |
| COc1ccc(OCc2ccnc(-c3ccc(C(N)=O)c(C)c3)c2)cc1OC [Example 17, 4-[4-(3,4-dimethoxyphenoxymethyl)pyridin-2-yl]-2-methylbenzamide] | 101 to 1000 |
| COc1ccc(OCc2cncc(-c3ccc(C(N)=O)c(C)c3)c2)c(Cl)c1 [Example 99, 4-[5-(2-chloro-4-methoxyphenoxymethyl)pyridin-3-yl]-2-methylbenzamide] | > 1000 |
| Cc1ccccc1OCc1ccnc(-c2ccc(C(N)=O)c(C)c2)c1 [Example 46, 4-[4-(2-methylphenoxymethyl)pyridin-2-yl]-2-methylbenzamide] | 101 to 1000 |
| Cc1cc(-c2cc(COc3cc(C(F)(F)F)nn3C)ccn2)ccc1C(N)=O [Example 66, 4-[4-({[1-methyl-3-(trifluoromethyl)-1H-pyrazol-5-yl]oxy}methyl)pyridin-2-yl]2-methylbenzamide] | 25 to 100 |
| COc1cc(OCc2ccnc(-c3ccc(C(N)=O)c(C)c3)c2)ccc1F [Example 61, 4-[4-(4-fluoro-3-methoxyphenoxymethyl)pyridin-2-yl]-2-methylbenzamide] | < 25 |
| Cc1cc(-c2cc(COc3ccc(F)c(C#N)c3)ccn2)ccc1C(N)=O [Example 7, 4-[4-(3-cyano-4-fluorophenoxymethyl)pyridin-2-yl]-2-methylbenzamide] | 101 to 1000 |
| Cc1cc(-c2cncc(COc3ccc(C(F)(F)F)cc3)c2)ccc1C(N)=O [Example 90, 4-{5-[4-(trifluoromethyl)phenoxymethyl]pyridin-3-yl}-2-methylbenzamide] | 25 to 100 |
| Cc1ccc(OCc2ccnc(-c3ccc(C(N)=O)c(C)c3)c2)cc1 [Example 36, 4-[4-(4-methylphenoxymethyl)pyridin-2-yl]-2-methylbenzamide] | 101 to 1000 |
| NC(=O)c1ccc(-c2cc(COc3ccc(C(F)(F)F)cc3)ccn2)cc1Cl [Example 76, 4-{4-[4-(trifluoromethyl)phenoxymethyl]pyridin-2-yl}2-chlorobenzamide] | < 25 |
| Cc1cc(-c2cc(COc3cccc(C)c3C)ccn2)ccc1C(N)=O [Example 41, 4-[4-(2,3-dimethylphenoxymethyl)pyridin-2-yl]-2-methylbenzamide] | 101 to 1000 |

| Compound | EC50 [nM] |
| --- | --- |
| Cc1cc(-c2cc(COc3cncc(C#N)c3)ccn2)ccc1C(N)=O [Example 75, 4-(4-{[(5-cyanopyridin-3-yl)oxy]methyl}pyridin-2-yl)-2-methylbenzamide] | 101 to 1000 |
| Cc1cc(-c2cc(COc3ccc(C#N)c(F)c3)ccn2)ccc1C(=O)NCCO [Example 79, 4-[4-(4-cyano-3-fluorophenoxymethyl)pyridin-2-yl]-N-(2-hydroxyethyl)-2-methylbenzamide] | 101 to 1000 |
| Cc1ccc(OCc2ccnc(-c3ccc(C(N)=O)c(C)c3)c2)cc1F [Example 8, 4-[4-(3-fluoro-4-methylphenoxymethyl)pyridin-2-yl]-2-methylbenzamide] | 101 to 1000 |
| CCc1ccccc1OCc1ccnc(-c2ccc(C(N)=O)c(C)c2)c1 [Example 32, 4-[4-(2-ethylphenoxymethyl)pyridin-2-yl]-2-methylbenzamide] | 101 to 1000 |
| Cc1cc(-c2cc(COc3cccc(CCO)c3)ccn2)ccc1C(N)=O [Example 16, 4-{4-[3-(2-hydroxyethyl)phenoxymethyl]pyridin-2-yl}-2-methylbenzamide] | 101 to 1000 |
| Cc1cc(-c2cc(COc3cc(F)c(Cl)c(F)c3)ccn2)ccc1C(N)=O [Example 56, 4-[4-(4-chloro-3,5-difluorophenoxymethyl)pyridin-2-yl]-2-methylbenzamide] | < 25 |
| Cc1cc(-c2cc(COc3ccc4c(c3)OCC4)ccn2)ccc1C(N)=O [Example 63, 4-{4-[(2,3-dihydro-1-benzofuran-6-yloxy)methyl]pyridin-2-yl}-2-methylbenzamide] | 101 to 1000 |
| Cc1cc(-c2cc(COc3ccc(C4CC4)c(F)c3)ccn2)ccc1C(N)=O [Example 71, 4-[4-(4-cyclopropyl-3-fluorophenoxymethyl)pyridin-2-yl]-2-methylbenzamide] | < 25 |
| Cc1cc(-c2cc(COc3ccc(C#N)c(F)c3F)ccn2)ccc1C(N)=O [Example 9, 4-[4-(4-cyano-2,3-difluorophenoxymethyl)pyridin-2-yl]-2-methylbenzamide] | 101 to 1000 |
| Cc1ccc(F)c(OCc2ccnc(-c3ccc(C(N)=O)c(C)c3)c2)c1 [Example 14, 4-[4-(2-fluoro-5-methylphenoxymethyl)pyridin-2-yl]-2-methylbenzamide] | 101 to 1000 |
| Cc1cc(-c2cc(COc3ccccc3C(F)(F)F)ccn2)ccc1C(N)=O [Example 3, 4-{4-[2-(trifluoromethyl)phenoxymethyl]pyridin-2-yl}-2-methyl benzamide] | 101 to 1000 |
| Cc1cc(-c2cc(COc3ccc4nn(C)cc4c3)ccn2)ccc1C(N)=O [Example 72, 4-(4-{[(2-methyl-2H-indazol-5-yl)oxy]methyl}pyridin-2-yl)-2-methyl benzamide] | 101 to 1000 |
| Cc1cc(-c2ccnc(COc3ccc4c(c3)OCC4)c2)ccc1C(N)=O [Example 88, 4-{2-[(2,3-dihydro-1-benzofuran-6-yloxy)methyl]pyridin-4-yl}-2-methylbenzamide] | < 25 |
| Cc1cc(-c2cc(COc3cc(F)cc(C4CC4)c3)ccn2)ccc1C(N)=O [Example 70, 4-[4-(3-cyclopropyl-5-fluorophenoxymethyl)pyridin-2-yl]-2-methylbenzamide] | < 25 |
| Cc1cc(-c2ccnc(COc3ccc(C#N)c(F)c3)n2)ccc1C(N)=O [Example 103, 4-[2-(4-cyano-3-fluorophenoxymethyl)pyrimidin-4-yl]-2-methylbenzamide] | 101 to 1000 |
| Cc1cc(-c2cc(COc3ccc4c(c3)CCO4)ccn2)ccc1C(N)=O [Example 64, 4-{4-[(2,3-dihydro-1-benzofuran-5-yloxy)methyl]pyridin-2-yl}-2-methylbenzamide] | < 25 |
| Cc1cc(-c2cc(COc3ccc(C(C)(C)O)cc3)ccn2)ccc1C(N)=O [Example 69, 4-{4-[4-(2-hydroxypropan-2-yl)phenoxymethyl]pyridin-2-yl}-2-methylbenzamide] | 25 to 100 |
| COc1cncc(OCc2ccnc(-c3ccc(C(N)=O)c(C)c3)c2)c1 [Example 74, 4-(4-{[(5-methoxypyridin-3-yl)oxy]methyl}pyridin-2-yl)-2-methylbenzamide] | 101 to 1000 |
| Cc1cc(-c2cc(COc3ccc4ccccc4c3)ccn2)ccc1C(N)=O [Example 42, 4-{4-[(naphthalen-2-yloxy)methyl]pyridin-2-yl}-2-methylbenzamide] | 25 to 100 |
| Cc1cc(-c2ccnc(COc3cc(F)cc(F)c3)c2)ccc1C(N)=O [Example 85, 4-[2-(3,5-difluorophenoxymethyl)pyridin-4-yl]-2-methylbenzamide] | 101 to 1000 |
| Cc1cc(-c2cc(COc3cccc(Cl)c3F)ccn2)ccc1C(N)=O [Example 50, 4-[4-(3-chloro-2-fluorophenoxymethyl)pyridin-2-yl]-2-methylbenzamide] | 25 to 100 |
